Test results published in PMC4136709 (ACS Chemical Biology, 2014).

Columns and labels:
[1] = molecular target: T1, PhaECAv (Allochromatium vinosum, UniProt P45370); test: discontinuous DTNB assay of CoA release; format: biochemical
T1 sequence (P45370 1-355): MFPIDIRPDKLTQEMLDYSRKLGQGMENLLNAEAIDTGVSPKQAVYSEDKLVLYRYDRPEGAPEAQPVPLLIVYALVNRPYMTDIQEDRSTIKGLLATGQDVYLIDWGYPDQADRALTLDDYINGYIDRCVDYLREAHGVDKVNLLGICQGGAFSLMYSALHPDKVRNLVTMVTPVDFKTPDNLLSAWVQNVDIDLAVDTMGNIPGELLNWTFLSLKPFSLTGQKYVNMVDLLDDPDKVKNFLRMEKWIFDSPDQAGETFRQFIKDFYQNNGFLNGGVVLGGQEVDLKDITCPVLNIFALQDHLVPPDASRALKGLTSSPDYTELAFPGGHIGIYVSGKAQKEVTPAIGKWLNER
T1 sequence (P45372 1-357 partner): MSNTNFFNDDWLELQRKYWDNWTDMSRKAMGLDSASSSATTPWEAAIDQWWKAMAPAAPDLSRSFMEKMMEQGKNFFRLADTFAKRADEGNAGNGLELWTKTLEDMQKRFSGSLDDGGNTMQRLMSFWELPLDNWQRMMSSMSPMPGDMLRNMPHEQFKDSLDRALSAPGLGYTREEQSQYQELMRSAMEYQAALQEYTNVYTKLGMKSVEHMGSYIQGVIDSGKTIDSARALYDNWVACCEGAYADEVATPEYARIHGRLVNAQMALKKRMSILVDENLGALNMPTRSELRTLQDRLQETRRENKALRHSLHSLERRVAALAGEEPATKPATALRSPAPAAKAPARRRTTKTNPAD

[2] = molecular target: T2, PhaCRe (Cupriavidus necator, UniProt P23608); test: discontinuous DTNB assay of CoA release; format: biochemical
T2 sequence (P23608 1-589): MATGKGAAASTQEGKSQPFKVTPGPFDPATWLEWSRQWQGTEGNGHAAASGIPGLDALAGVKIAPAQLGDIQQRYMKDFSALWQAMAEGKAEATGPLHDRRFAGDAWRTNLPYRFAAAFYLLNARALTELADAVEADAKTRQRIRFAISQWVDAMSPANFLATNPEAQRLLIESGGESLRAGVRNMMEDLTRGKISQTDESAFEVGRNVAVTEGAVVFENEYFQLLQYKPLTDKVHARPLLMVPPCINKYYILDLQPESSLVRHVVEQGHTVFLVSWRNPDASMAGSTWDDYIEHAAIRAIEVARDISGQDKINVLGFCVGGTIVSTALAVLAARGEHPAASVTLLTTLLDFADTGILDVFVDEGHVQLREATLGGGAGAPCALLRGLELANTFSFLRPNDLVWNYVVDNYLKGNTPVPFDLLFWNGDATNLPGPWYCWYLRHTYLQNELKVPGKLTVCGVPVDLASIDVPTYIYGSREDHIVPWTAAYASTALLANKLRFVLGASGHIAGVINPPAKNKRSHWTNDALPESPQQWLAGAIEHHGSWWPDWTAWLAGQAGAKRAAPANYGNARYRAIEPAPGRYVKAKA

Ki [1]: 40.1 µM
Ki [2]: 14.1 µM
Compound: C[C@@H](O)CC(=O)CCCNC(=O)CCNC(=O)[C@H](O)C(C)(C)COP(=O)(O)OP(=O)(O)OC[C@H]1O[C@@H](n2cnc3c(N)ncnc32)[C@H](O)[C@@H]1OP(=O)(O)O [compound 1, HBCH2CoA]
